In patent publication US20090324752A1, “COSMETIC USE OF ACTIVE INGREDIENTS INCREASING THE PRODUCTION OF GROWTH FACTORS” (CHANEL PARFUMS BEAUTE, priority 2006, published 2009):

System: Human dermal fibroblasts
Experiment: Stimulation of fibroblast proliferation by PDGF and FGFb (CellTiter 96 Aqueous One, absorbance 490 nm)
Format: cell-based
Details: 24 h, compared to the control (untreated = 100.00)
Method: Human dermal fibroblasts from a single donor were obtained from Cascade. At the 7rd passage, cells were seeded in 96 well plates and cultured in Dulbecco's modified Eagle medium DMEM (Gibco BRL, Gaithersburg, USA) supplemented with 10% foetal bovine serum (FBS, PAA, Linz, Austria), […] L-glutamine (Gibco) and 1% penicillin/streptomycin (Gibco). All cell culture was performed at […] in 5% CO2 and 95% air. This fibroblast culture was incubated by two growth factors ([…] and FGFb) at various concentrations for 24 h. After 24 hours incubation, 200 μL dosed media from 96-well plate were removed. CellTiter 96 Aqueous One Solution Reagent was used as described by the manufacturer. The absorbance at 490 nm was recorded using a plate reader to evaluate cell proliferation. The controls were the non treated cells. The experiment was conducted in 8 times by concentration.

Substance	Stimulation (%) of fibroblast proliferation (1 ng/ml) [%]	Stimulation (%) of fibroblast proliferation (10 ng/ml) [%]	Stimulation (%) of fibroblast proliferation (30 ng/ml) [%]
FGFb (157 aa): Basic Fibroblast Growth Factor (157 aa), growth factor added to fibroblast culture	141.22	149.20	–
PDGF	107.20	154.37	185.58
